The nature of the first assay: GPR35 antagonists, SAR follow-up, imaging, image-based, set 2 (AID 2480).
Conditions: not given
The IC50 is the concentration that inhibits the measured activity by half. `O=C(Nc1ccc2nc(SCc3ccc(Cl)cc3)sc2c1)c1ccccc1C(=O)N1CCOCC1` showed a half-inhibitory concentration (IC50) of 554 nM. This lies in the sub-micromolar range. The same measure, in the same setting: in the case of `Cc1ccc2[nH]c(C)c(/C=C/c3cc[n+](C)cc3)c2c1` it was 2360 nM; in that of `O=C(Nc1ccc2nc(SCc3ccc(Cl)c(Cl)c3)sc2c1)c1ccccc1Br`, over 32000 nM; in that of `COc1ccc(Cn2c(SCC(=O)Nc3ccc(C)c(C)c3)nc3ccsc3c2=O)cc1`, over 32000 nM. In turn, `CCC(Sc1nc2ccsc2c(=O)n1Cc1ccc(C(=O)O)cc1)C(=O)Nc1ccc(C)c(Cl)c1` (configuration not stated) gave an IC50 of over 32000 nM. Same read-out and setting: next, `Clc1ccc(Cn2ncc3c(N4CCN(c5ccccc5)CC4)ncnc32)cc1`: 7170 nM. On the same count and under the same terms, in the case of `Clc1ccccc1Cn1ncc2c(N3CCN(c4ccccc4)CC3)ncnc21` it was over 32000 nM; in that of `Cc1ccc(C)c(OCCC(=O)NCCc2ccc(S(N)(=O)=O)cc2)c1`, over 32000 nM; in that of `c1ccc(-c2n[n+](-c3ccccc3)c(-c3ccccc3)s2)cc1`, over 32000 nM.

Molecule `Cc1ccc(Cn2ncc3c(N4CCN(c5ccccc5C)CC4)ncnc32)cc1` [1-(4-methylbenzyl)-4-[4-(2-methylphenyl)-1-piperazinyl]-1H-pyrazolo[3,4-d]pyrimidine] had an IC50 of 2650 nM. On the same count and under the same terms, next, `Cc1ccccc1N1CCN(c2ncnc3c2cnn3Cc2ccc(Cl)cc2)CC1` [1-[(4-chlorophenyl)methyl]-4-[4-(2-methylphenyl)-1-piperazinyl]pyrazolo[3,4-d]pyrimidine]: 2220 nM; `Clc1ccc(Cn2ncc3c(N4CCN(c5cccc(Cl)c5)CC4)ncnc32)cc1` [1-[(4-chlorophenyl)methyl]-4-[4-(3-chlorophenyl)piperazin-1-yl]pyrazolo[3,4-d]pyrimidine]: over 32000 nM. On the same count and under the same terms, next, `COc1ccc(-c2nnc(-c3cccnc3)o2)cc1` [2-(4-methoxyphenyl)-5-pyridin-3-yl-1,3,4-oxadiazole]: over 32000 nM.

Molecule `O=C(Nc1ccc2nc(SCc3ccccc3)sc2c1)c1ccccc1C(=O)N1CCOCC1` [2-[4-morpholinyl(oxo)methyl]-N-[2-(phenylmethylthio)-1,3-benzothiazol-6-yl]benzamide] gave an IC50 of 1610 nM. The same measure, in the same setting: next, `C=CCn1c(C)c(/C=C/c2cc[n+](C)cc2)c2ccccc21` [2-methyl-3-[(E)-2-(1-methyl-4-pyridin-1-iumyl)ethenyl]-1-prop-2-enylindole;iodide]: 4990 nM; `O=C(CCCN1C(=O)/C(=C\c2ccccc2)SC1=S)Nc1cccc(C(=O)O)c1` [3-[4-(5-Benzylidene-4-oxo-2-thioxo-thiazolidin-3-yl)-butyrylamino]-benzoic acid]: 1600 nM. Same read-out and setting: next, `COc1ccc(/C=C2\SC(=S)N(CCCC(=O)Nc3cccc(C(=O)O)c3)C2=O)cc1OC` [3-[4-[(5Z)-5-[(3,4-dimethoxyphenyl)methylidene]-4-oxidanylidene-2-sulfanylidene-1,3-thiazolidin-3-yl]butanoylamino]benzoic acid]: 607 nM.

For the molecule `O=C(CCCN1C(=O)/C(=C/c2ccc3c(c2)OCO3)SC1=S)Nc1cccc(C(=O)O)c1` [3-[[4-[(5Z)-5-(1,3-benzodioxol-5-ylmethylidene)-4-oxo-2-sulfanylidene-3-thiazolidinyl]-1-oxobutyl]amino]benzoic acid], the IC50 stood at 983 nM. This IC50 is about 1.6-fold higher than that of the molecule before.

With `O=C(CCCN1C(=O)S/C(=C/C=C/c2ccccc2)C1=O)Nc1ccc(C(=O)O)cc1` [4-[4-[(5E)-2,4-dioxo-5-[(E)-3-phenylprop-2-enylidene]-1,3-thiazolidin-3-yl]butanoylamino]benzoic acid], the IC50 was 1170 nM. This IC50 and that of the molecule before are within 1.5-fold of each other. `COc1ccc(/C=C2\SC(=S)N(CCCC(=O)Nc3ccc(C(=O)O)c(O)c3)C2=O)cc1OC` [4-[4-[(5Z)-5-[(3,4-dimethoxyphenyl)methylidene]-4-oxo-2-sulfanylidene-1,3-thiazolidin-3-yl]butanoylamino]-2-hydroxybenzoic acid] yielded an IC50 of 151 nM. This IC50 lies about 7.7-fold lower than the previous one. `COc1cccc(/C=C2\SC(=S)N(CCCC(=O)Nc3ccc(C(=O)O)cc3)C2=O)c1` [4-[4-[(5Z)-5-[(3-methoxyphenyl)methylidene]-4-oxo-2-sulfanylidene-1,3-thiazolidin-3-yl]butanoylamino]benzoic acid] registered an IC50 of 651 nM. `CC(/C=C1\SC(=S)N(CCCC(=O)Nc2ccc(C(=O)O)cc2)C1=O)=C\c1ccccc1` [4-[4-[(5Z)-5-[(E)-2-methyl-3-phenyl-prop-2-enylidene]-4-oxidanylidene-2-sulfanylidene-1,3-thiazolidin-3-yl]butanoylamino]benzoic acid] came in with an IC50 of 105 nM. Same read-out and setting: in the case of `O=C(CCCN1C(=O)/C(=C/c2ccccc2)SC1=S)Nc1ccc(C(=O)O)c(O)c1` [4-[4-[(5Z)-5-benzylidene-4-oxo-2-sulfanylidene-1,3-thiazolidin-3-yl]butanoylamino]-2-hydroxybenzoic acid] it was 295 nM; in that of `O=C(CCCN1C(=O)/C(=C\c2ccccc2)SC1=S)Nc1ccc(C(=O)O)cc1` [4-[[1-oxo-4-[(5E)-4-oxo-5-(phenylmethylene)-2-sulfanylidene-3-thiazolidinyl]butyl]amino]benzoic acid], 1680 nM; in that of `O=C(CCCN1C(=O)/C(=C/c2ccc3c(c2)OCO3)SC1=S)Nc1ccc(C(=O)O)c(O)c1` [4-[[4-[(5Z)-5-(1,3-benzodioxol-5-ylmethylidene)-4-oxo-2-sulfanylidene-3-thiazolidinyl]-1-oxobutyl]amino]-2-hydroxybenzoic acid], 300 nM.

In turn, `CC(C)c1ccc(NC(=O)CSc2nc3ccsc3c(=O)n2Cc2ccc(C(=O)O)cc2)cc1` [4-[[4-oxo-2-[2-oxo-2-(4-propan-2-ylanilino)ethyl]sulfanylthieno[3,2-d]pyrimidin-3-yl]methyl]benzoic acid] returned an IC50 of 1330 nM.

Turning to `Cn1cc(/C=C/c2cc[n+](C)cc2)c2cc(Cl)ccc21` [5-chloranyl-1-methyl-3-[(E)-2-(1-methylpyridin-1-ium-4-yl)ethenyl]indole;hydroiodide], 5170 nM corresponded to half-maximal inhibition (IC50). Still for that read-out and setting: next, `Cc1ccc(/C=C2\SC(=S)N(CCCC(=O)Nc3ccc(O)cc3)C2=O)cc1` [MLS000777252]: 1420 nM; `O=C(CCCN1C(=O)S/C(=C\C=C\c2ccccc2)C1=O)Nc1ccc(C(=O)O)cc1` [MLS000948015]: 1170 nM. Regarding `Cc1ccc(/C=C2\SC(=S)N(CCCC(=O)Nc3cccc(C(=O)O)c3)C2=O)cc1` [MLS001034563], the half-inhibitory concentration (IC50) was determined as 240 nM. In turn, `CC(C)(C)c1ccc(OCCC(=O)NCCc2ccc(S(N)(=O)=O)cc2)cc1` [MLS001151090] showed an IC50 of 2230 nM.

With `O=C(CCCN1C(=O)S/C(=C/c2ccccc2)C1=S)Nc1ccc(C(=O)O)cc1` [MLS001167691], the IC50 is 1600 nM. On the same count and under the same terms, in the case of `Cc1ccccc1OCCC(=O)NCCc1ccc(S(N)(=O)=O)cc1` [MLS-0213188.0001] it was over 32000 nM; in that of `Cc1ccc(OCCC(=O)NCCc2ccc(S(N)(=O)=O)cc2)cc1` [MLS-0213737.0001], over 32000 nM; in that of `Cc1nc(N2CCC(C)CC2)c2c(C)c(C(=O)Nc3ccc(C)c(F)c3)sc2n1` [MLS-0244945.0001], 6100 nM.

`COc1ccc(/C=C2\SC(=S)N(CCCC(=O)Nc3ccc(O)cc3)C2=O)cc1` [MLS-0304362.0001] returned an IC50 of 1160 nM. Against the preceding molecule, the IC50 is about 5.3-fold lower. On the same count and under the same terms, next, `Cc1c(C(=O)Nc2ccc3c(c2)OCCO3)sc2ncnc(N3CCCCC3C)c12` (configuration not stated) [MLS-0359029.0001]: over 32000 nM; `CCOC(=O)c1ccc(NC(=O)CCCN2C(=O)/C(=C/c3ccc(C)cc3)SC2=S)cc1` [MLS-0435416.0001]: 2600 nM; `CCC(Sc1nc2ccsc2c(=O)n1Cc1ccc(C(=O)O)cc1)C(=O)Nc1ccc(Cl)cc1` (configuration not stated) [MLS-0435427.0001]: over 32000 nM. On the same count and under the same terms, next, `Fc1ccc(N2CCN(c3ncnc4c3cnn4Cc3ccc(Cl)cc3Cl)CC2)cc1` [MLS-0435440.0001]: over 32000 nM. The molecule `CC(C)COc1ccc(-c2nnc(-c3ccc(Cl)nc3)o2)cc1` [MLS-0435441.0001] registered an IC50 of over 32000 nM.

`Cc1nc(N2CCC(C)CC2)c2c(C)c(C(=O)Nc3ccc4c(c3)OCCO4)sc2n1` [N-(2,3-dihydro-1,4-benzodioxin-6-yl)-2,5-dimethyl-4-(4-methyl-1-piperidinyl)-6-thieno[2,3-d]pyrimidinecarboxamide] returned an IC50 of 1880 nM. As for `Cc1c(C(=O)Nc2ccc3c(c2)OCCO3)sc2ncnc(N3CCC(C)CC3)c12` [N-(2,3-dihydro-1,4-benzodioxin-6-yl)-5-methyl-4-(4-methyl-1-piperidinyl)-6-thieno[2,3-d]pyrimidinecarboxamide], the IC50 worked out at 4070 nM. This IC50 is about 2.2-fold higher than that of the molecule before. On the same count and under the same terms, next, `Cc1c(C(=O)Nc2ccc3c(c2)OCCO3)sc2ncnc(O)c12` [N-(2,3-dihydro-1,4-benzodioxin-6-yl)-5-methyl-4-oxo-3H-thieno[2,3-d]pyrimidine-6-carboxamide]: over 32000 nM; `CCc1ccc(NC(=O)CSc2nc3ccsc3c(=O)n2Cc2ccc(OC)cc2)cc1` [N-(4-ethylphenyl)-2-[[3-[(4-methoxyphenyl)methyl]-4-oxo-2-thieno[3,2-d]pyrimidinyl]thio]acetamide]: over 32000 nM. Same read-out and setting: next, `COc1ccc(/C=C2/SC(=S)N(CCCC(=O)Nc3ccc(O)cc3)C2=O)cc1` [N-(4-hydroxyphenyl)-4-[(5E)-5-[(4-methoxyphenyl)methylidene]-4-oxidanylidene-2-sulfanylidene-1,3-thiazolidin-3-yl]butanamide]: 1070 nM.

The same assay, now with this note: inactive by the depositor's call.
The molecule `O=C(CCCN1C(=O)/C(=C/c2cccs2)SC1=S)Nc1ccc(O)cc1` came in with an IC50 of 10700 nM. Regarding `CCOc1ccc(NC(=O)CSc2nc3ccsc3c(=O)n2Cc2ccc(C(=O)O)cc2)cc1`, it took 12500 nM to reach half-maximal inhibition (IC50). Same read-out and setting: in the case of `Cc1ccc(Cn2ncc3c(N4CCN(c5ccc(C)cc5)CC4)ncnc32)cc1` it was 17700 nM. Same read-out and setting: in the case of `c1ccc(Cn2ncc3c(N4CCN(c5ccccc5)CC4)ncnc32)cc1` [1-(phenylmethyl)-4-(4-phenylpiperazin-1-yl)pyrazolo[3,4-d]pyrimidine] it was 17000 nM; in that of `O=C(CCCN1C(=O)/C(=C\c2ccccc2)SC1=S)Nc1ccc(O)cc1` [N-(4-hydroxyphenyl)-4-[(5E)-4-oxidanylidene-5-(phenylmethylidene)-2-sulfanylidene-1,3-thiazolidin-3-yl]butanamide], 11800 nM; in that of `O=C(CCCN1C(=O)/C(=C\c2cccs2)SC1=S)Nc1ccc(O)cc1` [N-(4-hydroxyphenyl)-4-[(5E)-4-oxo-2-sulfanylidene-5-(thiophen-2-ylmethylidene)-1,3-thiazolidin-3-yl]butanamide], 11000 nM.

(Values after BindingDB's records for doi:10.7270/Q2F47MKR (Burnham Center For Chemical Genomics, 2010).)
